The record followed here is patent US20240228497A1, “Pyrrolo[2, 3-b]Pyrazine-Based Bifunctional Compounds as HPK1 Degraders and the Use Thereof” (BeiGene, Ltd., priority 2021, published 2024).

Test [1] concerns the target T1, HPK1 kinase (aa1-346, Life Technologies) (Homo sapiens, UniProt Q92918).
T1 construct: HPK1 kinase (aa1-346, Life Technologies); purchased Life Technologies
T1 sequence (Q92918 1-346): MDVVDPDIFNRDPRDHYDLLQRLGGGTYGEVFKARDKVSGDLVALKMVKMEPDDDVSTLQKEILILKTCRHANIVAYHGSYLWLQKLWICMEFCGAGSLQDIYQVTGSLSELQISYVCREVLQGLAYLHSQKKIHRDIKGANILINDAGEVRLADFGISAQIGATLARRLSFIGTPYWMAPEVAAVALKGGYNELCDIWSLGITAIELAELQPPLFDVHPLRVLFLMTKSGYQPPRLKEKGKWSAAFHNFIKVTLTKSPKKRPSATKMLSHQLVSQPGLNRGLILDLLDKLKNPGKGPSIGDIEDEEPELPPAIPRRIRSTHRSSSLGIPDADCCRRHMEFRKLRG
The test is described as follows: HPK Kinase Activity Assay at 1 mM ATP (TR-FRET). Type of test: biochemical. The conditions noted are these: HPK1 kinase 40 nM, 0.5 μM STK1 substrate, 60 min preincubation, read-out: Enzymatic activity IC50. The method, then: HPK Kinase Activity Assay at 1 mM ATP
Compounds disclosed herein were tested for inhibition of HPK1 kinase (aa1-346, Life Technologies) activity in assays based on the time-resolved fluorescence-resonance energy transfer (TR-FRET) methodology. The assays were carried out in 384-well low volume black plates in a reaction mixture containing HPK1 kinase (40 nM), 1 mM ATP, 0.5 μM STK1 substrate and 0-10 μM compound in buffer containing 50 mM HEPES, 0.01% BSA, 0.1 mM Orthovanadate, 10 mM MgCl2, 1 mM DTT, pH=7.0, 0.005% Tween-20. The kinase was incubated with the compounds disclosed herein or DMSO for 60 minutes at room temperature and the reaction was initiated by the addition of ATP and STK1 substrate. After reaction at room temperature for 120 minutes, an equal volume of stop/detection solution was added according to the manufacture's instruction (CisBio). The stop/detection solution contained STK Antibody—Cryptate and XL665-conjugated streptavidin in Detection Buffer. The TR-FRET signals (ratio of fluorescence emission at 665 nm over emission at 620 nm with excitation at 337 nm wavelength) were recorded on a PHERAstar FS plate reader (BMG Labtech). Phosphorylation of STK1 substrate led to the binding of STK Antibody—Cryptate to the biotinylated STK1 substrate, which places fluorescent donor (Eu^3+ crypate) in close proximity to the accepter (Streptavidin-XL665), thus resulting in a high degree of fluorescence resonance energy transfer. The inhibition of HPK1 in presence of increasing concentrations of compounds was calculated based on the ratio of fluorescence at 665 nm to that at 620 nm. IC50 determination was performed by fitting the curve of percent inhibition versus the log of the inhibitor concentration using Dotmatics.

For test [2], the system named is pSLP76 (S376) level in Jurkat cell line. The test is described as follows: Cellular pSLP76(S376) HTRF Assay in Jurkat cells. Type of test: cell-based. The conditions noted are these: 2 h compound treatment, stimulated with 0.05 μg/mL anti-human CD3 (OKT3) for 30 min. The method, then: Cellular pSLP76(S376) HTRF Assay
Jurkat cell line was used in this study. Cells were maintained in RPMI 1640 supplemented with heat-inactivated 10% fetal bovine serum (Thermo Fisher), 50 units/mL penicillin and streptomycin (Thermo Fisher) and kept at 37° C. in a humidified atmosphere of 5% CO2 in air. Cells were reinstated from frozen stocks that were laid down within 30 passages from the original cells purchased. After cell starvation in the assay buffer (RPMI 1640 supplemented with heat-inactivated 0.1% fetal bovine serum) for 18 hours, cells were seeded into a round bottom 96-well plate at 150,000 cells per well density. Cells were treated with a 9-point dilution series of test compounds. The final compound concentration is from 0 to 2 μM. After 2 h compound treatment, cells were stimulated with 0.05 μg/mL anti-human CD3 (OKT3, Bioxcell) for 30 min at 37° C. Then the cells were lysed, and the pSLP76 (S376) level in the cell lysates was detected by HTRF kit (Cisbio). A total of 16 μL of cell lysate from each well of a 96-well plate was transferred to a 384-well small volume white assay plate. Lysate from each well was incubated with 2 μL of Eu^3+-cryptate (donor) labeled anti-phospho-SLP76 and 2 μL of D2 (acceptor) labeled anti-phospho-SLP76 antibodies (Cisbio) overnight in dark at room temperature. FRET signals (655 nm) were measured using a PHERAstar FSX reader (BMG Labtech). IC50 determination was performed by fitting the curve of percent inhibition versus the log of the inhibitor concentration using Dotmatics.

For another test, the target named is T2, HPK1 protein (Homo sapiens, UniProt Q92918).
T2 construct: host or cells: human PBMC (CD4+ and CD8+ T cells gated in the FACS assay)
The test is described as follows: HPK1 Protein Degradation Assay in Human PBMC (FACS). It is filed as cell-based. The conditions noted are these: 24 h compound treatment. The method, then:
HPK1 Protein Degradation Assay in Human PBMC (FACS)
Human PBMCs (AllCells) was used in this study. Cells were thawed one day in advance and maintained in RPMI-1640 supplemented 10% fetal bovine serum (Thermo Fisher), 50 units/mL penicillin and streptomycin (Thermo Fisher) and the mixture was kept at 37° C. in a humidified atmosphere air containing 5% CO2. 3×10^6 PBMCs per well in 95 μL culture medium were seed in the 96-well plate, and the cells were treated with an appropriate dilution series of compounds. After 24 h compound treatment, 100 μL 1xLyse/Fix buffer (BD, diluted with water, warm up in 37° C.) was added to cells and the cells were incubated at 37° C. for 10 minutes. After fixed, the cells were transferred to V-bottom plates (Corning), and washed with FACS buffer (cold 2% FBS DPBS). The cells were permeabilized by adding 100 μL pre-chilled BD Phosflow Perm Buffer III (BD) for 30 min on ice. After washed with FACS buffer twice, the cells were incubated with 50 μL antibody cocktail (HPK1(CST)(1:50), anti-human CD4 BV421 (BD)(1:25), anti-human CD8 APC(BD) (1:25)) at room temperature for 1 h. After washed with FACS buffer twice, the cells were further incubated with 50 μL secondary antibody cocktail (Biolegend) (1:50) at room temperature for 1 h. After washed with FACS buffer twice, the signals were detected by BD FACS Celesta. The data were analyzed by Excel and GraphPad Prism 8.

Where [3] appears, read: CD4+ T Cells, read-out: Protein degradation DC50, CD4+ T Cells.
Setting [4] is: CD4+ T Cells, read-out: Protein degradation Dmax, CD4+ T Cells.
Where [5] appears, read: CD8+ T Cells, read-out: Protein degradation DC50, CD8+ T Cells.
The mark [6] stands for this setting: CD8+ T Cells, read-out: Protein degradation Dmax, CD8+ T Cells.

Structures are written as SMILES. Where two headings read alike, the source gives them in different places.

T2 sequence (Q92918 whole entry): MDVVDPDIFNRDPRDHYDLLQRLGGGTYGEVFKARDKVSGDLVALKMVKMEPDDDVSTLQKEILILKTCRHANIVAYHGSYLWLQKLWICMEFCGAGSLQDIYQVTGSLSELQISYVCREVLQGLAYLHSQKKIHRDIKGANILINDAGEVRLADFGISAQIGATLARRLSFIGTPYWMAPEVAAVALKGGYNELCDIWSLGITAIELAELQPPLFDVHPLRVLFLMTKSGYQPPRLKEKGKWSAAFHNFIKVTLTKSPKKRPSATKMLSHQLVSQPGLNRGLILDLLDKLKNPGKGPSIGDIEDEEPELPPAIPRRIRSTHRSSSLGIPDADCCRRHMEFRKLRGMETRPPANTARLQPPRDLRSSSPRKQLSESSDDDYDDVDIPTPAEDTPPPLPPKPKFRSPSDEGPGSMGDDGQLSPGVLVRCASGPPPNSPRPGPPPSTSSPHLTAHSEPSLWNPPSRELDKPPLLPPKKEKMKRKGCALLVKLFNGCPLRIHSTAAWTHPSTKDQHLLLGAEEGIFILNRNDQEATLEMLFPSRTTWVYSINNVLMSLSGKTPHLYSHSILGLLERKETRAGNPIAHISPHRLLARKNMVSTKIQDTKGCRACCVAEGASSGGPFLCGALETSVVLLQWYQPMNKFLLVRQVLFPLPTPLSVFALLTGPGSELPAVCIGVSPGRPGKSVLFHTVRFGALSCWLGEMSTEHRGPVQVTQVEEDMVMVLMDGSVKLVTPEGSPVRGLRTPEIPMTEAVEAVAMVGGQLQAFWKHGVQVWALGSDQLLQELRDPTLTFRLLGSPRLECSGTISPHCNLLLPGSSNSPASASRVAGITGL

For `Cc1cc(-c2cnc3[nH]cc(-c4ccc(C(=O)N(C)C[C@H](C)O)cc4)c3c2)cc2c1CN(CCC(=O)N1CCN(c3ccc(N4CCC(=O)NC4=O)cc3)CC1)CC2` [Example 9, (S)-4-(5-(2-(3-(4-(4-(2,4-dioxotetrahydropyrimidin-1(2H)-yl)phenyl)piperazin-1-yl)-3-oxopropyl)-8-methyl-1,2,3,4-tetrahydroisoquinolin-6-yl)-1H-pyrrolo[2,3-b]pyridin-3-yl)-N-(2-hydroxypropyl)-N-methylbenzamide], the IC50 in test [1] is 16 nM; in test [2], 181 nM. Besides, on HPK1 protein (CD4+ T Cells), the “Protein degradation DC90, CD4+ T Cells” value is listed as 77 nM. Besides, the DC50 at HPK1 protein (setting [3]) amounted to 19 nM; at HPK1 protein (setting [5]) it was 71 nM. In addition, the Dmax on HPK1 protein (setting [4]) was 93%; on HPK1 protein (setting [6]), 95%. Moreover, the “Protein degradation DC90, CD8+ T Cells” value at HPK1 protein (CD8+ T Cells) is on record as 495 nM.
For `Cc1cc(-c2cnc3[nH]cc(-c4ccc(C(=O)N(C)C[C@H](C)O)cc4)c3n2)cc2c1CN(CCC(=O)N1CCN(c3ccc(N4CCC(=O)NC4=O)cc3)CC1)CC2` [Example 7, (S)-4-(2-(2-(3-(4-(4-(2,4-dioxotetrahydropyrimidin-1(2H)-yl)phenyl)piperazin-1-yl)-3-oxopropyl)-8-methyl-1,2,3,4-tetrahydroisoquinolin-6-yl)-5H-pyrrolo[2,3-b]pyrazin-7-yl)—N-(2-hydroxypropyl)—N-methylbenzamide], the IC50 in test [1] worked out at 20 nM; in test [2], 307 nM. The “Protein degradation DC90, CD4+ T Cells” value on HPK1 protein (CD4+ T Cells) is listed as 118 nM. Besides, the DC50 on HPK1 protein (setting [3]) was 25 nM; at HPK1 protein (setting [5]), 45 nM. Moreover, the Dmax at HPK1 protein (setting [4]) and at HPK1 protein (setting [6]) was 95% in each case. In addition, the “Protein degradation DC90, CD8+ T Cells” value at HPK1 protein (CD8+ T Cells) worked out at 388 nM.
As for `Cc1cc(-c2cnc3[nH]cc(-c4ccc(C(=O)N(C)C)cc4)c3c2)cc2c1CN(CCC(=O)N1CCN(c3ccc(N4CCC(=O)NC4=O)cc3)CC1)CC2` [Example 6, 4-(5-(2-(3-(4-(4-(2,4-dioxotetrahydropyrimidin-1(2H)-yl)phenyl)piperazin-1-yl)-3-oxopropyl)-8-methyl-1,2,3,4-tetrahydroisoquinolin-6-yl)-1H-pyrrolo[2,3-b]pyridin-3-yl)-N,N-dimethylbenzamide], the results for the concentration for half-maximal inhibition (IC50) in test [1] and in test [2] were 31 nM and 88 nM, respectively. Besides, on HPK1 protein (CD4+ T Cells), the “Protein degradation DC90, CD4+ T Cells” value was 52 nM. The DC50 on HPK1 protein (setting [3]) is 11 nM; at HPK1 protein (setting [5]) it was 16 nM. The Dmax at HPK1 protein (setting [4]) and on HPK1 protein (setting [6]) was 96% each time. The “Protein degradation DC90, CD8+ T Cells” value at HPK1 protein (CD8+ T Cells) came to 104 nM.
For the compound `Cc1cc(-c2cnc3[nH]cc(-c4ccc(C(=O)N(C)C)cc4)c3n2)cc2c1CN(CCC(=O)N1CCN(c3ccc(N4CCC(=O)NC4=O)cc3)CC1)CC2` [Example 5, 4-(2-(2-(3-(4-(4-(2,4-dioxotetrahydropyrimidin-1(2H)-yl)phenyl)piperazin-1-yl)-3-oxopropyl)-8-methyl-1,2,3,4-tetrahydroisoquinolin-6-yl)-5H-pyrrolo[2,3-b]pyrazin-7-yl)-N,N-dimethylbenzamide], the IC50 in test [1] stood at 24 nM; in test [2], 116 nM. In addition, the “Protein degradation DC90, CD4+ T Cells” value at HPK1 protein (CD4+ T Cells) is 60 nM. The DC50 was 9 nM at HPK1 protein (setting [3]) and 17 nM at HPK1 protein (setting [5]). For the same compound, the Dmax at HPK1 protein (setting [4]) worked out at 95%; at HPK1 protein (setting [6]) it was 96%. Also, the “Protein degradation DC90, CD8+ T Cells” value on HPK1 protein (CD8+ T Cells) came to 128 nM.
In the case of `Cc1cc(-c2c[nH]c3ncc(-c4cc(C)c5c(c4)CCN(CCNC(=O)CC4CCN(c6ccc(C7CCC(=O)NC7=O)cc6)CC4)C5)nc23)ccc1C(=O)N(C)C` (stereo not shown) [Example 8, 4-(2-(2-(2-(2-(1-(4-(2,6-dioxopiperidin-3-yl)phenyl)piperidin-4-yl)acetamido)ethyl)-8-methyl-1,2,3,4-tetrahydroisoquinolin-6-yl)-5H-pyrrolo[2,3-b]pyrazin-7-yl)-N,N,2-trimethylbenzamide], the IC50 was 297 nM in test [1] and 496 nM in test [2].
